Read-outs that look alike come from different tables or passages of the source.

In data set [1] the test system is Ramos. The data set is described as follows: MTT cell proliferation assay, Ramos. Conditions: Homo sapiens, Lymphoma, read-out: Cell killing activity IC50. Format: cell-based. As to the method: (§1) Cells were plated in 96-well tissue culture plates at a density of 1 × 10^3 cells/well, allowed to attach 24 h, and then left untreated or treated with growth medium containing different concentrations of the tested RCn compounds previously dissolved in PBS. After different time periods the cell vitality was determined by MTT assay according to the manufacture’s instruction (Promega). Results are reported as the micromolar concentration of RCn reducing cell survival to 50% (IC50).
On the technique in general: Formazan colour is commonly taken as a measure of viable cells.

Data set [2] has as its system A549. The data set is described as follows: MTT cell proliferation assay, A549. Format: cell-based. The conditions noted are these: Homo sapiens, A549, adult tumor cell line, read-out: Cell killing activity IC50. How it is done:
as §1

For data set [3], the system named is pediatric tumor cell lines. The data set is described as follows: MTT cell killing, pediatric tumor cell lines (summary). The conditions noted are these: Table I. Format: cell-based. As to the method: as §1
For data set [4], the system named is human keratinocytes, human fibroblasts and HUVEC. The data set is described as follows: MTT cell killing, normal versus tumor cells (summary). Format: cell-based. As to the method:
as §1

The test system of data set [5] is SH-SY5Y cells. The data set is described as follows: Caspase activation (western blot, fluorimetric assay). Format: cell-based. How it is done:
Cells with or without RCn treatment were washed with PBS and lysed on ice for 30 min in lysis buffer containing protease and phosphatase inhibitors. Protein concentrations were determined with the Bio-Rad protein assay kit. 50 μg of total protein was separated on 12% SDS-PAGE at 100 V for 1 h and then transferred onto a nitrocellulose membrane using a wet blotting apparatus (Bio-Rad Laboratories) at 20 V overnight. Proteins were detected by enhanced chemiluminescence detection reagents (Amersham Biosciences). The antibodies used for immunoblotting were: caspases 3, 8, 9, and PARP were diluted 1:100 in blocking reagent (Cell Signaling Technology). The exposure time was the same for all the antibodies. Blots were stripped and reprobed with anti-β-tubulin diluted 1:10,000 in blocking reagent (Santacruz Biotechnology) used as the loading control.
Detection of caspase activity was evaluated by ApoFluor Green Apoptosis Detection kits specific for: caspase-1 and caspase-4; caspase-2, caspase-3 and caspase-7; caspase-6, caspase-8, caspase-9, caspase-10, and caspase-13 (MP Biochemicals), according to the manufacturer’s instructions. […] After 1 h incubation samples were washed and analyzed by flow cytometry (FACScan, Becton Dickinson) equipped with a 15-mW argon ion laser at 488 nm ([16]).
In general terms: Immunoblotting shows a protein as a band on a membrane.

The subject of data set [6] is A673. Put plainly: Intracellular ROS assay. It is filed as cell-based, human. The conditions noted are these: A673, 5 μM RC16, 15 h. How it is done: Intracellular ROS were measured by OxiSelect™ Intracellular ROS Assay Kit (Cell Biolabs) following the manufacturer’s instructions. Briefly, cells (1 × 10^5/mL) were washed twice in PBS and incubated with 5 μM 2’,7’-dichlorodihydrofluorescein diacetate (H2DCFDA) 1 h at 37°C. After PBS washes, the medium was changed with a new one containing 5 μM RC16 for 15 h and 24 h. At the end of the treatment samples were washed with PBS and a mixture of medium and cell lysis buffer (1:1) was added for 5 min at 37°C. The fluorescence was read by a fluorimetric plate reader (Spectra max M2, Molecular Device). Excitation wavelength was 480 nm and emission wavelength was 530 nm.

Data set [7] deals with S462.TY cells. The data set is described as follows: Interaction of RC16 with sialic acid (MTT). Format: cell-based, human. Conditions: 24 h. How it is done:
Neuraminidase was used to cleave the sialic acid residues from the polysialilated glycoproteins and gangliosides of the tumor cell surface and the anticancer activity of RC16 was subsequently tested in comparison with the cells not exposed to Neuraminidase. Cells were seeded on 96 well plates at a density of 2 × 10^4 cells /plate and after 24 h were exposed to 50 IU/mL Neuraminidase Type VI from Clostridium Perfrigens (Sigma) for 3 h. Cells were washed 3 times with PBS and afterwards treated with RC16 . The effect on cell number was evaluated after 24 h by MTT assay in comparison with cells not treated with Neuraminidase. The RC16 –sialic acid interaction was also evaluated by adding sialic acid to the culture medium in stoichiometric amount with respect to RC16. In this experiment cells seeded on 96 well plates at a density of 2 × 10^4 cells /plate and after 24 h were treated with a mixture of RC16 : sialic acid (3 μM : 3 μM). After 24 h the effect on cell number was evaluated by MTT assay in comparison with cells treated with pure RC16 or pure sialic acid at the same concentration (3 μM) of the mixture.

The test system of data set [8] is human tumor xenografts (CHLA-20, SK-N-AS, A673, A549, S462TY). The data set is described as follows: In vivo efficacy, human tumor xenograft models. As to the method:
Female athymic nude mice were subcutaneously injected with 5 × 10^6 human cancer cells in 150 μL mix of PBS and matrigel (2:1). The mice were then randomized into groups of six animals for each tumor type. This number was chosen because we sought a large effect size and to minimize numbers of mice. When tumors reached a mean volume of 150 mm^3, the animals were treated with RC16 or vehicle alone (PBS), given slowly through the tail vein at the dose of 1 mg/kg, 3 times a week for 3 weeks or orally gavaged at the dose of 2 mg/kg/day for 3 weeks.
(§2) Endpoint criteria included tumor volume > 2000 mm3, body weight loss ≥ 20%, unusual mouse behavior, lack of movement and poor posture. Tumor size was measured using digital calipers on alternate days and tumor volume was calculated using the following formula: a x b^2 π/6 where a is the longest diameter and b is the shortest diameter. Mice were also weighed and observed 3 times per week for signs of endpoint condition.

The test system of data set [9] is Neuro 2A. The data set is described as follows: In vivo efficacy, metastatic model of murine neuroblastoma. Details: species or system mouse. As to the method: An efficacy study was performed on an immunocompetent model of neuroblastoma. In this experiment A/J mice were i.v. injected with Neuro 2A (0.2 × 10^6 cells in 100 μL of PBS). After 5 days, the mice were randomized (six animals per group) and treated once with RC16 injected through the tail vein at doses of 20 μg or 40 μg/mouse or vehicle (PBS). After treatment animals were monitored for survival and endpoint criteria.
as §2

In the case of `CCCCCCCCCCCCCCC1CN2CCCN3CCCCCC132` (stereo not drawn) [RC16, 2-tetradecyl-4,8-diazatricyclo[6.5.0.0^1,^4]tridecane], the concentration for half-maximal inhibition (IC50) in data set [1] (24 h) stood at 100 nM; in data set [1] (48 h) it was 40 nM; in data set [2] (24 h), 6.62 µM; in [2] (48 h) it was 5.58 µM. The “Cell killing (qualitative)” value in data set [3] was “most active”. Also, the “IC50 for normal cells relative to tumor cells” value in [4] is “more than tenfold higher”. Also, in data set [5] (5 μM RC16, 1-24 h), the “Caspase activation, fluorimetric assay (caspases 1, 2, 3, 6, 8, 9, 10, 13)” value is on record as “all the above caspases were activated already at 4 h”. Moreover, in [5] (5 μM RC16, 2-36 h), the “Caspase activation, western blot” value is “activation of caspases 3, 8 and 9”. Besides, in data set [6], the “Intracellular ROS levels relative to control” value was “more than twice the control values”. The “Anticancer activity after Neuraminidase pre-treatment of cells” value in [7] (RC16 3 μM, versus cells not exposed to Neuraminidase) is “decreased the anticancer activity of RC16”. Also, in data set [7] (RC16 : sialic acid 3 μM : 3 μM, versus pure RC16), the “Anticancer activity with sialic acid added to culture medium” value is recorded as “decreased the RC16 anticancer activity”. Also, in data set [8] (1 mg/kg i.v. 3 times a week for 3 weeks or 2 mg/kg/day oral gavage for 3 weeks), the “Antitumor activity (inhibition of tumor growth, RTV)” value was “strong antitumor activity”. In [8] (i.v. 1 mg/kg 3 times a week or gavage 2 mg/kg/day, 3 weeks), the “Weight loss or signs of toxicity during treatment” value is reported as “No weight loss or signs of toxicity”. Further, in data set [9] (A/J mice, single i.v. dose 20 μg or 40 μg/mouse), the “Mean survival time versus controls” value was “significant increase in the mean survival time”. Moreover, in data set [9] (end of experiment (90 days), 20 μg or 40 μg/mouse i.v.), the “Treated mice healthy and alive, no macroscopic disease at necropsy” value is listed as 3 of the 12.

One may read the IC50 as the concentration needed to halve the response being measured.

Source of the values: PMC5040747, “Preparation and Evaluation of a Novel Class of Amphiphilic Amines as Antitumor Agents and Nanocarriers for Bioactive Molecules” (Pharmaceutical Research, 2016).
